Values joined by “and” are separate entries in the source; they are usually repeats but may differ in a detail not shown here. Identical values can stand only once. Inconclusive results and toxic doses are left out.
System: CD2F1 mice, L1210 leukemia ip, survival T/C
Experiment: NCI In Vivo Anticancer Drug Screen. Data for tumor model L1210 Leukemia (intraperitoneal) in CD2F1 (CDF1) mice
Settings: higher = longer survival
In short: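 Implant tumor; dose compound or vehicle; measure endpoint in both groups; report treated divided by control.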

[1] = endpoint: mean survival time, dose: 12.5 mg/kg/injection, schedule: Q01DX009 (ip), vehicle: saline with Tween-80
[2] = endpoint: mean survival time, dose: 25.0 mg/kg/injection, schedule: Q01DX009 (ip), vehicle: saline with Tween-80
[3] = endpoint: mean survival time, dose: 50.0 mg/kg/injection, schedule: Q01DX009 (ip), vehicle: saline with Tween-80
[4] = endpoint: mean survival time, dose: 100.0 mg/kg/injection, schedule: Q01DX001 (ip), vehicle: saline with Tween-80
[5] = endpoint: mean survival time, dose: 200.0 mg/kg/injection, schedule: Q01DX001 (ip), vehicle: saline with Tween-80
[6] = endpoint: mean survival time, dose: 100.0 mg/kg/injection, schedule: Q04DX003 (ip), vehicle: saline
[7] = endpoint: mean survival time, dose: 200.0 mg/kg/injection, schedule: Q04DX003 (ip), vehicle: saline
[8] = endpoint: mean survival time, dose: 100.0 mg/kg/injection, schedule: Q01DX009 (ip), vehicle: saline
[9] = endpoint: mean survival time, dose: 100.0 mg/kg/injection, schedule: Q01DX009 (ip), vehicle: saline with Tween-80
[10] = endpoint: mean survival time, dose: 200.0 mg/kg/injection, schedule: Q01DX009 (ip), vehicle: saline with Tween-80
[11] = endpoint: mean survival time, dose: 400.0 mg/kg/injection, schedule: Q01DX009 (ip), vehicle: saline with Tween-80
[12] = endpoint: mean survival time, dose: 200.0 mg/kg/injection, schedule: Q01DX009 (ip), vehicle: saline
[13] = endpoint: mean survival time, dose: 400.0 mg/kg/injection, schedule: Q04DX003 (ip), vehicle: saline
[14] = endpoint: mean survival time, dose: 25.0 mg/kg/injection, schedule: Q01DX001 (ip), vehicle: saline with Tween-80

COC(=O)c1ccc[n+](CCc2c[nH]c3ccccc23)c1
T/C [1]: 92 % of control
T/C [2]: 97 % of control
T/C [3]: 96 % of control and 107 % of control
T/C [4]: 101 % of control
T/C [5]: 96 % of control

CCCCOC(=O)c1ccc2c(ccc[n+]2C)c1
T/C (endpoint: mean survival time, dose: 37.5 mg/kg/injection, schedule: Q01DX009 (ip), vehicle: saline with Tween-80): 97 % of control
T/C (endpoint: mean survival time, dose: 75.0 mg/kg/injection, schedule: Q01DX009 (ip), vehicle: saline with Tween-80): 103 % of control
T/C (endpoint: mean survival time, dose: 150.0 mg/kg/injection, schedule: Q01DX009 (ip), vehicle: saline with Tween-80): 107 % of control

O=C(O)C1CC1.[Ag]
T/C (endpoint: mean survival time, dose: 0.78 mg/kg/injection, schedule: Q01DX009 (ip), vehicle: water): 100 % of control
T/C (endpoint: mean survival time, dose: 1.56 mg/kg/injection, schedule: Q01DX009 (ip), vehicle: water): 100 % of control
T/C (endpoint: mean survival time, dose: 3.12 mg/kg/injection, schedule: Q01DX009 (ip), vehicle: water): 96 % of control
T/C (endpoint: mean survival time, dose: 6.25 mg/kg/injection, schedule: Q01DX009 (ip), vehicle: water): 102 % of control
T/C (endpoint: mean survival time, dose: 12.5 mg/kg/injection, schedule: Q01DX009 (ip), vehicle: water): 102 % of control
T/C (endpoint: mean survival time, dose: 25.0 mg/kg/injection, schedule: Q01DX009 (ip), vehicle: water): 104 % of control
T/C [6]: 93 % of control
T/C [7]: 93 % of control

C#CCOC1CCCCO1 (configuration not stated)
T/C (endpoint: mean survival time, dose: 25.0 mg/kg/injection, schedule: Q01DX009 (ip), vehicle: saline): 102 % of control
T/C (endpoint: mean survival time, dose: 50.0 mg/kg/injection, schedule: Q01DX009 (ip), vehicle: saline): 108 % of control
T/C [8]: 106 % of control

CCOC(=O)C(C(=O)OCC)C(=O)c1cccc2c1ccc1ccccc12
T/C (endpoint: mean survival time, dose: 100.0 mg/kg/injection, schedule: Q01DX005 (ip), vehicle: saline with Tween-80): 95 % of control
T/C [9]: 104 % of control
T/C (endpoint: mean survival time, dose: 200.0 mg/kg/injection, schedule: Q01DX005 (ip), vehicle: saline with Tween-80): 95 % of control
T/C [10]: 93 % of control
T/C (endpoint: mean survival time, dose: 400.0 mg/kg/injection, schedule: Q01DX005 (ip), vehicle: saline with Tween-80): 95 % of control
T/C [11]: 86 % of control

O=c1[nH]nc(-c2cccc3ccccc23)o1
T/C [4]: 96 % of control
T/C [5]: 99 % of control
T/C (endpoint: mean survival time, dose: 400.0 mg/kg/injection, schedule: Q01DX001 (ip), vehicle: saline with Tween-80): 108 % of control

C[C@H](N)C(=O)N[C@@H]1[C@H]2C(=C(O)C[C@@H](O)[C@@H]2O)C(=O)O[C@@H]1C
T/C (endpoint: mean survival time, dose: 100.0 mg/kg/injection, schedule: Q01DX007 (ip), vehicle: saline): 113 % of control
T/C [8]: 118 % of control
T/C (endpoint: mean survival time, dose: 100.0 mg/kg/injection, schedule: Q03DX003 (ip), vehicle: saline): 107 % of control
T/C [6]: 106 % of control
T/C (endpoint: mean survival time, dose: 200.0 mg/kg/injection, schedule: Q01DX007 (ip), vehicle: saline): 124 % of control
T/C [12]: 120 % of control
T/C (endpoint: mean survival time, dose: 200.0 mg/kg/injection, schedule: Q03DX003 (ip), vehicle: saline): 109 % of control
T/C [7]: 106 % of control
T/C (endpoint: mean survival time, dose: 400.0 mg/kg/injection, schedule: Q03DX003 (ip), vehicle: saline): 115 % of control
T/C [13]: 112 % of control
T/C (endpoint: median survival time, dose: 75.0 mg/kg/injection, schedule: Q01DX009 (ip), vehicle: saline): 103 % of control
T/C (endpoint: median survival time, dose: 150.0 mg/kg/injection, schedule: Q01DX009 (ip), vehicle: saline): 109 % of control
T/C (endpoint: median survival time, dose: 300.0 mg/kg/injection, schedule: Q01DX009 (ip), vehicle: saline): 119 % of control
T/C (endpoint: median survival time, dose: 1200.0 mg/kg/injection, schedule: Q01DX009 (ip), vehicle: saline): 150 % of control and 166 % of control
T/C (endpoint: median survival time, dose: 2400.0 mg/kg/injection, schedule: Q01DX009 (ip), vehicle: saline): 86 % of control

CC[C@](C)(O)C(=O)O[C@H]1C(=O)O[C@@H]2C[C@H]3C(C)=CC(=O)[C@@H](O)[C@]3(C)[C@H]3[C@@]4(O)OC[C@]32[C@@H]1[C@@H](C)[C@H]4O
T/C (endpoint: mean survival time, dose: 12.5 micrograms/kg/injection, schedule: Q01DX009 (ip), vehicle: saline with Tween-80): 101 % of control
T/C (endpoint: mean survival time, dose: 25.0 micrograms/kg/injection, schedule: Q01DX009 (ip), vehicle: saline with Tween-80): 100 % of control
T/C (endpoint: mean survival time, dose: 50.0 micrograms/kg/injection, schedule: Q01DX009 (ip), vehicle: saline with Tween-80): 105 % of control
T/C (endpoint: mean survival time, dose: 100.0 micrograms/kg/injection, schedule: Q01DX009 (ip), vehicle: saline with Tween-80): 112 % of control

O=C1c2ccccc2C(=O)N1CCCl
T/C [9]: 91 % of control
T/C [10]: 91 % of control
T/C [11]: 92 % of control

CCOC(=O)c1ncn(C2OC(CO)C(O)C2O)c1N (configuration not stated)
T/C (endpoint: mean survival time, dose: 12.5 mg/kg/injection, schedule: Q01DX005 (ip), vehicle: water): 97 % of control
T/C (endpoint: mean survival time, dose: 25.0 mg/kg/injection, schedule: Q01DX005 (ip), vehicle: water): 98 % of control
T/C (endpoint: mean survival time, dose: 50.0 mg/kg/injection, schedule: Q01DX005 (ip), vehicle: water): 103 % of control
T/C (endpoint: mean survival time, dose: 100.0 mg/kg/injection, schedule: Q01DX005 (ip), vehicle: water): 101 % of control
T/C (endpoint: mean survival time, dose: 200.0 mg/kg/injection, schedule: Q01DX005 (ip), vehicle: water): 97 % of control

CC1C(=O)C(=O)C(CCc2ccccc2)C1=O (configuration not stated)
T/C [9]: 97 % of control
T/C [10]: 102 % of control
T/C [11]: 109 % of control

CCCCNC(C)(C)C(SSSC(c1ccc(C(F)(F)F)cc1)C(C)(C)NCCCC)c1ccc(C(F)(F)F)cc1 (configuration not stated)
T/C [6]: 92 % of control
T/C [7]: 94 % of control
T/C [13]: 100 % of control

O=C(O)C1=CC(O)C(O)C(O)C1 (configuration not stated)
T/C [6]: 102 % of control
T/C [7]: 96 % of control
T/C [13]: 90 % of control

COC1C(O)=C2C(=O)OC(C)(O)/C=C/C=C\C=C/C=C/C(c3ccccc3)NC(=O)/C=C/C=C/C=C/C=C/C2(C)C1O (configuration not stated)
T/C (endpoint: mean survival time, dose: 6.25 mg/kg/injection, schedule: Q01DX009 (ip), vehicle: Klucel (hydroxypropylcellulose) (HPC)): 106 % of control
T/C (endpoint: mean survival time, dose: 12.5 mg/kg/injection, schedule: Q01DX009 (ip), vehicle: Klucel (hydroxypropylcellulose) (HPC)): 95 % of control
T/C (endpoint: mean survival time, dose: 25.0 mg/kg/injection, schedule: Q01DX009 (ip), vehicle: Klucel (hydroxypropylcellulose) (HPC)): 103 % of control

CN(C)N=C1CCCCC1
T/C (endpoint: mean survival time, dose: 75.0 mg/kg/injection, schedule: Q01DX001 (ip), vehicle: saline): 96 % of control
T/C (endpoint: mean survival time, dose: 150.0 mg/kg/injection, schedule: Q01DX001 (ip), vehicle: saline): 98 % of control

OC1CCc2c(Cl)sc(Cl)c21 (configuration not stated)
T/C [14]: 92 % of control
T/C (endpoint: mean survival time, dose: 50.0 mg/kg/injection, schedule: Q01DX001 (ip), vehicle: saline with Tween-80): 98 % of control
T/C [4]: 98 % of control

O=S(=O)(NC1CCc2ccccc21)c1ccccc1 (configuration not stated)
T/C (endpoint: mean survival time, dose: 100.0 mg/kg/injection, schedule: Q04DX003 (ip), vehicle: saline with Tween-80): 98 % of control
T/C (endpoint: mean survival time, dose: 200.0 mg/kg/injection, schedule: Q04DX003 (ip), vehicle: saline with Tween-80): 97 % of control
T/C (endpoint: mean survival time, dose: 400.0 mg/kg/injection, schedule: Q04DX003 (ip), vehicle: saline with Tween-80): 98 % of control

Nc1nc(N)c(-c2ccc(Cl)c(Cl)c2)c(/C=C/C=C/c2cccnc2)n1
T/C [3]: 110 % of control
T/C [9]: 95 % of control

Cc1c(NCO)c(=O)n(-c2ccccc2)n1C
T/C [8]: 94 % of control
T/C [12]: 89 % of control
T/C (endpoint: mean survival time, dose: 400.0 mg/kg/injection, schedule: Q01DX009 (ip), vehicle: saline): 105 % of control

CC(C)c1ccc2c(c1)CCC1C(C)(CN)CCCC21C (configuration not stated) (tested in a mixture with another compound)
T/C (endpoint: mean survival time, dose: 6.25 mg/kg/injection, schedule: Q01DX001 (ip), vehicle: saline with Tween-80): 91 % of control
T/C (endpoint: mean survival time, dose: 6.25 mg/kg/injection, schedule: Q01DX009 (ip), vehicle: saline with Tween-80): 101 % of control
T/C (endpoint: mean survival time, dose: 12.5 mg/kg/injection, schedule: Q01DX001 (ip), vehicle: saline with Tween-80): 96 % of control
T/C [1]: 101 % of control
T/C [14]: 87 % of control
T/C [2]: 101 % of control

O=P(O)(O)Cc1ccccc1-c1ccccc1
T/C (endpoint: mean survival time, dose: 100.0 mg/kg/injection, schedule: Q01DX001 (ip), vehicle: saline): 93 % of control
T/C (endpoint: mean survival time, dose: 200.0 mg/kg/injection, schedule: Q01DX001 (ip), vehicle: saline): 94 % of control
T/C (endpoint: mean survival time, dose: 400.0 mg/kg/injection, schedule: Q01DX001 (ip), vehicle: saline): 100 % of control

CC(C)(CCC(C)(C)c1ccccc1)c1ccccc1
T/C [3]: 96 % of control
T/C [9]: 96 % of control
T/C [10]: 96 % of control
